{"source": "patent US11130771B2", "about": "“Prodrugs of Naltrexone, Nalmefene and derivatives thereof” (TAIWANJ PHARMACEUTICALS CO., LTD., priority 2018, dated 2021)", "test": "Pharmacokinetic Measurement in BALB/c Mice (oral gavage, plasma LC-MS/MS)", "conditions": "parent compound after oral administration, compared with prodrug and Naltrexone from prodrug; FIGS. 1 and 2", "experimental": "This study tested the bioavailability of different test compounds in rats, by oral gavage administration, at prescribed dose levels.\nMale BALB/c mice, body weight approximately 1925 g, were purchased from BioLASCO Taiwan Co., Ltd. and kept in the Animal Laboratory of Industrial\nLC-MS/MS: ABSCIEX 4000 QTRAP LC-MS/MS System; Polarity: positive mode; Column: XBridge RP18, 3.5 μm, 4.6×20 mm; Flow rate: 0.7 mL/min; Injection volume: 10 μL; Temperature: Room temperature; Running time: 5 min.\nBlood aliquots (40 μL) were collected from jugular vein catheterized BALB/c in tubes coated with K2-EDTA, mixed gently, then kept on ice and centrifuged at 7000×g for 15 minutes at 4° C. The plasma was then harvested and kept frozen at −80° C. until further processing.\nThe plasma samples were processed using acetonitrile precipitation and analyzed by LC-MS/MS. A plasma calibration curve was generated. […]\nThe spiked plasma samples were processed together with the unknown plasma samples using the same procedure. The processed plasma samples were stored at −80° C. until the LC-MS/MS analysis, at which time peak areas were recorded, and the concentrations of the test compound in the unknown plasma samples were determined using the respective calibration curve. The reportable linear range of the assay was determined, along with the lower limit of quantitation (LOQ). […]"}
{"smiles": "O=C1CC[C@@]2(O)[C@H]3Cc4ccc(O)c5c4[C@@]2(CCN3CC2CC2)[C@H]1O5", "note": "[Naltrexone]", "values": [{"measurement": "concentration in blood with respect to time", "result": "raised rapidly and reached the highest level"}]}
